Data reported in patent US12577234B2, “Antagonists of the muscarinic acetylcholine receptor M4” (Vanderbilt University, priority 2017, dated 2026).

Assays:
human mAChR M4 = target: T1, human mAChR M4 (Homo sapiens, UniProt P08173); assay: mAChR M4 cell-based functional assay (calcium mobilization, EC80 acetylcholine), human M4; details: Table 10; for IC50: M4/Gqi5/CHO-K1 cells, decrease of EC80 acetylcholine response
T1 construct: expressed in transfected cells; host or cells: CHO-K1 (ATCC), stably co-expressing chimeric G protein Gqi5
T1 sequence (P08173 1-479): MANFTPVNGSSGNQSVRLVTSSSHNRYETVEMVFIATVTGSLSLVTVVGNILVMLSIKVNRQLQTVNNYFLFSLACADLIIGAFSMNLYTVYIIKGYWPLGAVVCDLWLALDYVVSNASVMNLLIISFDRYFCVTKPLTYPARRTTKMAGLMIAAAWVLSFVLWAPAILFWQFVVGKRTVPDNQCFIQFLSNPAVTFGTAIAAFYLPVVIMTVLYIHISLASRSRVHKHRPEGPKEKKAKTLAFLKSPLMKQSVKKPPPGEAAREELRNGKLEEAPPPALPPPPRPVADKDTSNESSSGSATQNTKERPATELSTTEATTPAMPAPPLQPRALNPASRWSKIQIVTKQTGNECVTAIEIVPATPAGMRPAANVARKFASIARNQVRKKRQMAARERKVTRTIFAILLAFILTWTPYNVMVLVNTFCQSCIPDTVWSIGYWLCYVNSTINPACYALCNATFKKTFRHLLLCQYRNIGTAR
In short: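 CHO-K1 cells stably expressing human M4 with chimeric Gqi5; intracellular calcium rise read on FDSS as fluorescence static ratio at 1 Hz. Compounds in 10-point 1:3 dilution series; IC50 taken as concentration-dependent decrease of the EC80 acetylcholine response, four-parameter logistic fit.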

rat mAChR M4 = target: T2, rat mAChR M4 (Rattus norvegicus, UniProt P08485); assay: mAChR M4 cell-based functional assay (calcium mobilization, EC80 acetylcholine), rat M4; details: Table 10; for IC50: M4/Gqi5/CHO-K1 cells, decrease of EC80 acetylcholine response
T2 construct: expressed in transfected cells; host or cells: CHO-K1 (ATCC), stably co-expressing chimeric G protein Gqi5
T2 sequence (P08485 1-478): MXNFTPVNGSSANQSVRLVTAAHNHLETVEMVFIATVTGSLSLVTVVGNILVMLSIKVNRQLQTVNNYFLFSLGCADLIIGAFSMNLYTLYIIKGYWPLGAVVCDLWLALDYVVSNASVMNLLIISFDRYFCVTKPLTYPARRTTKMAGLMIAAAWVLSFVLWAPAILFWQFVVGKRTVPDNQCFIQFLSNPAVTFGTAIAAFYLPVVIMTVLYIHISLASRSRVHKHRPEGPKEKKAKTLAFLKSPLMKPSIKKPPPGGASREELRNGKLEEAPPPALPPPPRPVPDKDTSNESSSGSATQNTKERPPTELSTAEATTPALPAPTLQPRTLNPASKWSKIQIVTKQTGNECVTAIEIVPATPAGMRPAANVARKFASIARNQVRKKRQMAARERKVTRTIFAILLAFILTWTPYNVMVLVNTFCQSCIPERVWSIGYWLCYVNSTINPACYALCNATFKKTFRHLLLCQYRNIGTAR
Protocol: Human or rat M4 cDNA, along with the chimeric G protein Gqi5, were transfected into Chinese hamster ovary (CHO-K1) cells purchased from the American Type Culture Collection using Lipofectamine2000. M4/Gqi5/CHO cells were grown in Ham's F-12 medium containing 10% heat-inactivated fetal bovine serum (FBS), 20 mM HEPES, 500 μg/mL G418 sulfate, and 200 μg/mL Hygromycin B.
For high throughput measurement of agonist-evoked increases in intracellular calcium, CHO-K1 cells stably expressing muscarinic receptors were plated in growth medium lacking G418 and hygromycin at 15,000 cells/20 μL/well in Greiner 384-well black-walled, tissue culture (TC)-treated, clear-bottom plates (VWR). Cells were incubated overnight at 37° C. and 5% CO2. The next day, cells were washed using an ELX 405 (BioTek) with assay buffer; the final volume was then aspirated to 20 μL. Next, 20 μL of a 2.3 μM stock of Fluo-4/acetoxymethyl ester (Invitrogen, Carlsbad, CA), prepared as a 2.3 mM stock in DMSO and mixed in a 1:1 ratio with 10% (w/v) Pluronic F-127 and diluted in assay buffer, was added to the wells and the cell plates were incubated for 50 min at 37° C. and 5% CO2. Dye was removed by washing with the ELX 405 and the final volume was aspirated to 20 μL. Compound master plates were formatted in a 10 point concentration-response curve (CRC) format (1:3 dilutions) in 100% DMSO with a starting concentration of 10 or 1 mM using a BRAVO liquid handler (Agilent). Test compound CRCs were then transferred to daughter plates (240 nL) using the Echo acoustic plate reformatter (Labcyte, Sunnyvale, CA) and then diluted into assay buffer (40 μL) to a 2× stock using a Thermo Fisher Combi (Thermo Fisher Scientific, Waltham, MA).
Calcium flux was measured using the Functional Drug Screening System (FDSS) 6000 or 7000 (Hamamatsu Corporation, Tokyo, Japan) as an increase in the fluorescent static ratio. Compounds were applied to cells (20 μL, 2×) using the automated system of the FDSS at 2 seconds into the protocol and the data were collected at 1 Hz. At 143 s, 10 μL of an EC20 concentration of the muscarinic receptor agonist acetylcholine was added (5×), followed by the addition of 12 μL of an EC80 concentration of acetylcholine at the 268 s time point (5×). Agonist activity was analyzed as a concentration-dependent increase in calcium mobilization upon compound addition. Positive allosteric modulator activity was analyzed as a concentration-dependent increase in the EC20 acetylcholine response. Antagonist activity was analyzed as a concentration-dependent decrease in the EC80 acetylcholine response; for the purposes of the tables herein, an IC50 (inhibitory concentration 50) was calculated as a concentration-dependent decrease of the response elicited by an EC80 concentration of acetylcholine. Concentration-response curves were generated using a four-parameter logistical equation in XLFit curve fitting software (IDBS, Bridgewater, NJ) for Excel (Microsoft, Redmond, WA) or Prism (GraphPad Software, Inc., San Diego, CA) or the Dotmatics software platform (Dotmatics, Bishop's Stortford, UK).

[1] = system: haloperidol-induced catalepsy in mice; assay: catalepsy induced by the DA receptor antagonist haloperidol; assay type: in vivo
M4 knockout mice = details: but not the other four mAChR subtypes; cited from earlier work

Row | SMILES | Human M4 Emin (human mAChR M4) [%] | IC50 (human mAChR M4) [nM] | Rat M4 Emin (rat mAChR M4) [%] | IC50 (rat mAChR M4) [nM] | reduction of haloperidol-induced catalepsy ([1]; M4KO mice) | reversal of haloperidol-induced catalepsy ([1]; WT mice) | locomotor-activating effects (M4 knockout mice)
1 | CC(C)(C)CCN1C[C@H]2C[C@H](Oc3ccc(Cl)nn3)C[C@H]2C1 [Compound 128, (3aR,5s,6aS)-5-(6-chloropyridazin-3-yl)oxy-2-(3,3-dimethylbutyl)-3,3a,4,5,6,6a-hexahydro-1H-cyclopenta[c]pyrrole] | 5 | 1090 | 17 | 6330 |  |  | 
2 | CC(=O)Nc1ccc(-c2ccc(O[C@H]3C[C@@H]4CN(CCC(C)(C)C)C[C@@H]4C3)nn2)cc1 [Compound 129, N-[4-[6-[[(3aR,5s,6aS)-2-(3,3-dimethylbutyl)-3,3a,4,5,6,6a-hexahydro-1H-cyclopenta[c]pyrrol-5-yl]oxy]pyridazin-3-yl]phenyl]acetamide] | 4 | 91.2 | 4 | 195 |  |  | 
3 | CC(=O)Nc1ccc(-c2ccc(O[C@H]3C[C@@H]4CN(CC5CCOCC5)C[C@@H]4C3)nn2)cc1 [Compound 132, N-[4-[6-[[(3aR,5s,6aS)-2-(tetrahydropyran-4-ylmethyl)-3,3a,4,5,6,6a-hexahydro-1H-cyclopenta[c]pyrrol-5-yl]oxy]pyridazin-3-yl]phenyl]acetamide] | 6 | 648 | 6 | 995 |  |  | 
4 | CC(C)(C)CCN1C[C@H]2C[C@H](Oc3ccc(-c4cc(F)ccc4Cl)nn3)C[C@H]2C1 [Compound 137, (3aR,5s,6aS)-5-[6-(2-chloro-5-fluoro-phenyl)pyridazin-3-yl]oxy-2-(3,3-dimethylbutyl)-3,3a,4,5,6,6a-hexahydro-1H-cyclopenta[c]pyrrole] | 3 | 19.8 | 3 | 313 |  |  | 
5 | CC(C)(C)CCN1C[C@H]2C[C@H](Oc3ccc(-c4ccc5c(c4)OCO5)nn3)C[C@H]2C1 [Compound 138, (3aR,5s,6aS)-5-[6-(1,3-benzodioxol-5-yl)pyridazin-3-yl]oxy-2-(3,3-dimethylbutyl)-3,3a,4,5,6,6a-hexahydro-1H-cyclopenta[c]pyrrole] | 3 | 59.1 | 3 | 382 |  |  | 
6 | CC(=O)Nc1ccc(-c2ccc(N[C@H]3C[C@@H]4CN(CCC(C)(C)C)C[C@@H]4C3)nn2)cc1 [Compound 140, N-[4-[6-[[(3aR,5s,6aS)-2-(3,3-dimethylbutyl)-3,3a,4,5,6,6a-hexahydro-1H-cyclopenta[c]pyrrol-5-yl]amino]pyridazin-3-yl]phenyl]acetamide] | 5 | 1.08 | 3 | 17.1 |  |  | 
7 | CC(C)(C)CCN1C[C@H]2C[C@H](Nc3ccc(-c4ccc(F)cc4Cl)nn3)C[C@H]2C1 [Compound 141, (3aR,5s,6aS)-N-[6-(2-chloro-4-fluoro-phenyl)pyridazin-3-yl]-2-(3,3-dimethylbutyl)-3,3a,4,5,6,6a-hexahydro-1H-cyclopenta[c]pyrrol-5-amine] | 4 | 14.8 | 3 | 138 |  |  | 
8 | COc1ccc(-c2ccc(N[C@H]3C[C@@H]4CN(CC5CCOCC5)C[C@@H]4C3)nn2)cc1F [Compound 222, (3aR,5s,6aS)-N-[6-(3-fluoro-4-methoxy-phenyl)pyridazin-3-yl]-2-(tetrahydropyran-4-ylmethyl)-3,3a,4,5,6,6a-hexahydro-1H-cyclopenta[c]pyrrol-5-amine] | 3 | 5 | 6 | 63.6 |  |  | 
9 | FC(F)Oc1ccc(-c2ccc(N[C@H]3C[C@@H]4CN(CC5CCOCC5)C[C@@H]4C3)nn2)cc1 [Compound 223, (3aR,5s,6aS)-N-[6-[4-(difluoromethoxy)phenyl]pyridazin-3-yl]-2-(tetrahydropyran-4-ylmethyl)-3,3a,4,5,6,6a-hexahydro-1H-cyclopenta[c]pyrrol-5-amine] | 3 | 6.39 | 6 | 121 |  |  | 
10 | c1csc(-c2ccc(N[C@H]3C[C@@H]4CN(CC5CCOCC5)C[C@@H]4C3)nn2)c1 [Compound 226, (3aR,5s,6aS)-2-(tetrahydropyran-4-ylmethyl)-N-[6-(2-thienyl)pyridazin-3-yl]-3,3a,4,5,6,6a-hexahydro-1H-cyclopenta[c]pyrrol-5-amine] | 6 | 22 | 14 | 605 |  |  | 
11 | c1cc(-c2ccc(N[C@H]3C[C@@H]4CN(CC5CCOCC5)C[C@@H]4C3)nn2)cs1 [Compound 227, (3aR,5s,6aS)-2-(tetrahydropyran-4-ylmethyl)-N-[6-(3-thienyl)pyridazin-3-yl]-3,3a,4,5,6,6a-hexahydro-1H-cyclopenta[c]pyrrol-5-amine] | 5 | 8.4 | 13 | 2230 |  |  | 
12 | c1cc(C2CC2)ncc1-c1ccc(N[C@H]2C[C@@H]3CN(CC4CCOCC4)C[C@@H]3C2)nn1 [Compound 232, (3aR,5s,6aS)-N-[6-(6-cyclopropyl-3-pyridyl)pyridazin-3-yl]-2-(tetrahydropyran-4-ylmethyl)-3,3a,4,5,6,6a-hexahydro-1H-cyclopenta[c]pyrrol-5-amine] | 4 | 5.32 | 8 | 490 |  |  | 
13 | CN1[C@@H]2C[C@@H](OC(=O)[C@H](CO)c3ccccc3)C[C@H]1[C@@H]1O[C@@H]12 [scopolamine] |  |  |  |  | ineffective in reducing catalepsy | completely reversed | dramatically reduced
